# Assay results as given in US20060115815A1 (priority 2002, published 2006).
# Read-outs that look alike come from different tables or passages of the source.
# How the values were obtained:
# [1] = target: recombinant HIV-1 protease (Human immunodeficiency virus type 1 group M subtype B, UniProt P04585); assay: biochemical; type: biochemical
# [2] = system: mutant HIV-1 with I84V/L90M mutations in the protease gene; type: cell-based
# [3] = system: wild-type HIV-1 strain IIIB; assay: microbe, parasite or virus in culture; type: cell-based
# 84V90M = 84V90M (Human immunodeficiency virus type 1 group M subtype B, UniProt P04585, I572V/L578M); assay: cell-based; set-up: species or system HIV-1
# WT = assay: microbe, parasite or virus in culture; type: cell-based, HIV-1; conditions: Human immunodeficiency virus 1, read-out: Cell-based assay (MT-4) EC50 WT
# WT HIV-1 = assay: microbe, parasite or virus in culture; type: cell-based
# 30N82I88D = assay: microbe, parasite or virus in culture; type: cell-based, HIV-1; conditions: Human immunodeficiency virus 1, read-out: Cell-based assay (MT-4) EC50 30N82I88D
# [4] = system: recombinant HIV-1 strains with resistance mutations in the protease gene; assay: Cross-resistance profile assay, whole panel of mutant viruses; type: cell-based
# [5] = system: PBMC in intact human whole blood
# [6] = fold difference in EC50, mutant vs. wild type
# [7] = Human immunodeficiency virus 1, read-out: EC50 [nM] WT HIV-1
# [8] = Ki (pM), class symbols, Table 10
compound,measurement,setting,value
COc1ccc(S(=O)(=O)N(CC(C)C)CC(O)C(CC2=CCN(CP(=O)(O)OC(C)C(=O)O)CC2)NC(=O)OC2COC3OCCC23)cc1 (centres unmarked),Ki,[1]; read-out: Ki,> 1000 pM
CCOC(=O)C(C)OP(=O)(Oc1ccccc1)c1ccc(CN(C)CC(NC(=O)OC2COC3OCCC23)C(O)CN(CC(C)C)S(=O)(=O)c2ccc(OC)cc2)cc1 (centres unmarked),I84V/L90M fold change,[2]; [6],+ (>3 to ≦10)
same,EC50,[3]; read-out: EC50,< 50 nM
COc1ccc(S(=O)(=O)N(CC(C)C)CC(O)C(CN(C)Cc2ccc(P(=O)(O)OC(C)C(=O)O)cc2)NC(=O)OC2COC3OCCC23)cc1 (centres unmarked),Ki,[1]; read-out: Ki,> 1000 pM
CCOC(=O)C(C)OP(=O)(Cc1ccc2c(c1)CCN(C[C@H](NC(=O)O[C@H]1CO[C@H]3OCC[C@H]31)[C@H](O)CN(CC(C)C)S(=O)(=O)c1ccc(OC)cc1)C2)Oc1ccccc1 (some centres unmarked),I84V/L90M fold change,[2]; [6],+ (>3 to ≦10)
same,EC50,[3]; read-out: EC50,50 to 500 nM
COc1ccc(S(=O)(=O)N(CC(C)C)C[C@@H](O)[C@H](CN2CCc3cc(OCP(=O)(O)OC(C)C(=O)O)ccc3C2)NC(=O)O[C@H]2CO[C@H]3OCC[C@H]32)cc1 (some centres unmarked),Ki,[1]; read-out: Ki,100 to 1000 pM
COc1ccc(S(=O)(=O)N(CC(C)C)CC(O)C(Cc2ccc(C)cc2)NC(=O)OC2COC3OCCC23)cc1 (centres unmarked),I84V/L90M fold change,[2]; I84V/L90M mutant,+ (>3 to ≦10)
same,EC50,[3]; read-out: EC50,< 50 nM
COc1ccc(S(=O)(=O)N(CC(C)C)CC(O)C(Cc2ccc(O)cc2)NC(=O)OC2COC3OCCC23)cc1 (centres unmarked),I84V/L90M fold change,[2]; I84V/L90M mutant,— (≦3)
same,EC50,[3]; read-out: EC50,< 50 nM
COc1ccc(S(=O)(=O)N(C[C@@H](O)[C@H](Cc2ccccc2)NC(=O)O[C@H]2CO[C@H]3OCC[C@H]32)CC(C)(C)COCP(=O)(O)O)cc1,I84V/L90M fold change,[2]; I84V/L90M mutant,+++ (>30)
same,EC50,[3]; read-out: EC50,500 to 5000 nM
Cc1cccc(C)c1OCC(=O)N[C@@H](Cc1ccc(OCP(=O)(Oc2ccccc2)Oc2ccccc2)cc1)[C@H](O)CN(CC(C)C)S(=O)(=O)c1ccc(N)cc1,Ki,[1]; read-out: Ki,100 to 1000 pM
same,I84V/L90M fold change,[2]; I84V/L90M mutant,++ (>10 to ≦30)
same,EC50,[3]; read-out: EC50,< 50 nM
Cc1ccc(C(=O)N[C@@H](Cc2ccc(OCP(=O)(Oc3ccccc3)Oc3ccccc3)cc2)[C@H](O)CN(CC(C)C)S(=O)(=O)c2ccc(N)cc2)cc1O,Ki,[1]; read-out: Ki,100 to 1000 pM
same,I84V/L90M fold change,[2]; I84V/L90M mutant,+ (>3 to ≦10)
same,EC50,[3]; read-out: EC50,50 to 500 nM
Cc1ccc(C(=O)N[C@@H](Cc2ccc(OCP(=O)(OCc3ccccc3)OCc3ccccc3)cc2)[C@H](O)CN(CC(C)C)S(=O)(=O)c2ccc(N)cc2)cc1O,I84V/L90M fold change,[2]; I84V/L90M mutant,+ (>3 to ≦10)
same,EC50,[3]; read-out: EC50,50 to 500 nM
CCOC(=O)C(C)OP(=O)(COc1ccc(C[C@H](NC(=O)O[C@H]2CO[C@H]3OCC[C@H]32)[C@H](O)CN(CC(C)C)S(=O)(=O)c2ccccc2)cc1)Oc1ccccc1 (some centres unmarked),I84V/L90M fold change,[2]; I84V/L90M mutant,+ (>3 to ≦10)
same,EC50,[3]; read-out: EC50,< 50 nM
CCOC(=O)C(C)OP(=O)(COc1ccc(C[C@H](NC(=O)O[C@H]2CO[C@H]3OCC[C@H]32)[C@H](O)CN(CC(C)C)S(=O)(=O)c2ccc(F)cc2)cc1)Oc1ccccc1 (some centres unmarked),I84V/L90M fold change,[2]; I84V/L90M mutant,+ (>3 to ≦10)
same,EC50,[3]; read-out: EC50,< 50 nM
CC(C)CN(C[C@@H](O)[C@H](Cc1ccc(OCP(=O)(OCc2ccccc2)OC(C)C(=O)OCc2ccccc2)cc1)NC(=O)O[C@H]1CO[C@H]2OCC[C@H]21)S(=O)(=O)c1ccc(F)cc1 (some centres unmarked),I84V/L90M fold change,[2]; I84V/L90M mutant,+ (>3 to ≦10)
same,EC50,[3]; read-out: EC50,50 to 500 nM
CC(C)CN(CC(O)C(Cc1ccc(OCP(=O)(O)OC(C)C(=O)O)cc1)NC(=O)OC1COC2OCCC12)S(=O)(=O)c1ccc(CO)cc1 (centres unmarked),Ki,[1]; read-out: Ki,10 to 100 pM
CC(C)CN(CC(O)C(Cc1ccc(OCP(=O)(O)OC(C)C(=O)O)cc1)NC(=O)OC1COC2OCCC12)S(=O)(=O)c1ccc(CN2CCOCC2)cc1 (centres unmarked),Ki,[1]; read-out: Ki,> 1000 pM
CC(C)CN(CC(O)C(Cc1ccccc1)NC(=O)OC1COC2OCCC12)S(=O)(=O)c1ccc(OCP(=O)(O)Oc2ccccc2)cc1 (centres unmarked),Ki,[1]; Ki,10 to 100 pM
CCOP(=O)(CCCNC(=O)c1cccc(CN2C(=O)N(Cc3ccc4[nH]nc(N)c4c3)C(Cc3ccccc3)C(O)C(O)C2Cc2ccccc2)c1)OCC (centres unmarked),EC50,84V90M,476 nM
same,EC50,WT,188 nM
CCOP(=O)(CCn1nc(O)c2cc(CN3C(=O)N(Cc4ccccc4)[C@H](Cc4ccccc4)[C@H](O)[C@@H](O)[C@H]3Cc3ccccc3)ccc21)OCC,IC50,[1]; read-out: Enzymatic assay WT IC50/nM,109 nM
COc1ccc(CN2C(=O)N(Cc3ccc(OCc4ccccc4)cc3)[C@H](Cc3ccccc3)[C@H](O)[C@@H](O)[C@H]2Cc2ccccc2)cc1C#N,Ki,[1]; read-out: Enzymatic assay Ki,> 5000 pM
same,EC50,"WT HIV-1; MT-4, WT, read-out: Cell-based assay (MT-4) EC50/nM WT",5950 nM
CCOP(=O)(COc1ccc(CC2C(O)C(O)C(Cc3ccccc3)N(Cc3ccccc3)C(=O)N2Cc2ccccc2)cc1)OCC (centres unmarked),EC50,"WT HIV-1; Human immunodeficiency virus 1, read-out: Cell-based assay (MT-4) EC50/nM WT",107 nM
Nc1n[nH]c2ccc(CN3C(=O)N(Cc4ccc(OCP(=O)(OCc5ccccc5)OCc5ccccc5)cc4)C(Cc4ccccc4)C(O)C(O)C3Cc3ccccc3)cc12 (centres unmarked),EC50,30N82I88D,2120 nM
same,EC50,84V90M,4960 nM
same,EC50,WT,2700 nM
CCOP(=O)(COc1ccc(CN2C(=O)N(Cc3ccc4[nH]nc(N)c4c3)C(Cc3ccccc3)C(O)C(O)C2Cc2ccccc2)cc1)OCC (centres unmarked),EC50,30N82I88D,1340 nM
same,EC50,84V90M,> 6000 nM
same,EC50,WT,2480 nM
"COc1ccc(S(=O)(=O)N(CC(C)C)C[C@@H](O)[C@H](Cc2ccccc2)NC(=O)O[C@H]2CO[C@H]3OCC[C@H]32)cc1 [94-003, reference compound]",Total No. of Resistant Viruses,[4]; {},3
same,EC50,WT HIV-1; [7],0.5 nM
CCOP(=O)(COCCCCN1C(=O)N(Cc2ccc3[nH]nc(N)c3c2)C(Cc2ccccc2)C(O)C(O)C1Cc1ccccc1)OCC (centres unmarked) [CH2OCH2PO3Et2],EC50,84V90M,3300 nM
Nc1n[nH]c2ccc(CN3C(=O)N(CCCCOCP(=O)(O)O)C(Cc4ccccc4)C(O)C(O)C3Cc3ccccc3)cc12 (centres unmarked) [CH2OCH2PO3H2],EC50,84V90M,> 4240 nM
CCOC(=O)C(C)NP(=O)(COc1ccc(CC(NC(=O)OC2COC3OCCC23)C(O)CN(CC(C)C)S(=O)(=O)c2ccc(OC)cc2)cc1)Oc1ccccc1 (centres unmarked) [GS-16571],Intracellular Acid Metabolite Concentration,[5],319 ± 112 µM
same,Intracellular Prodrug Concentration,[5],137 ± 62 µM
same,"Intracellular Prodrug and Metabolites Concentration, uM: Acid Metabolite",[5],319 ± 112 µM
same,Intracellular Prodrug and Metabolites Concentration: Prodrug,[5],137 ± 62 µM
same,Intracellular Prodrug and Metabolites Concentration: Total,[5],432 ± 208 µM
same,Total No. of Resistant Viruses,"[4]; of 11 mutant viruses, resistance = 5-fold and higher change in EC50 relative to wild-type",0
"CC(C)(C)NC(=O)[C@@H]1CN(Cc2cccnc2)CCN1C[C@@H](O)C[C@@H](Cc1ccccc1)C(=O)N[C@H]1c2ccccc2C[C@H]1O [Indinavir, reference compound]",Total No. of Resistant Viruses,[4]; {},8
same,EC50,WT HIV-1; [7],15 nM
CCOP(=O)(COCCCN1C(=O)N(Cc2ccc3[nH]nc(N)c3c2)C(Cc2ccccc2)C(O)C(O)C1Cc1ccccc1)OCC (centres unmarked) [OCH2PO3Et2],EC50,84V90M,> 6000 nM
"CCOP(=O)(COc1ccc(CC2C(O)C(O)C(Cc3ccc(OC)cc3)N(Cc3cccc(N)c3)C(=O)N2Cc2cccc(N)c2)cc1)OCC (centres unmarked) [OCH3, Ph-mNH2, OCH2PO3Et2]",EC50,84V90M,535 nM
"CC(C)c1nc(CN(C)C(=O)N[C@H](C(=O)N[C@@H](Cc2ccccc2)C[C@H](O)[C@H](Cc2ccccc2)NC(=O)OCc2cncs2)C(C)C)cs1 [Ritonavir, reference compound]",Total No. of Resistant Viruses,[4]; {},10
same,EC50,WT HIV-1; [7],15 nM
"CC(C)(C)NC(=O)[C@@H]1C[C@@H]2CCCC[C@@H]2CN1C[C@@H](O)[C@H](Cc1ccccc1)NC(=O)[C@H](CC(N)=O)NC(=O)c1ccc2ccccc2n1 [Saquinavir, reference compound]",Total No. of Resistant Viruses,[4]; {},4
same,EC50,WT HIV-1; [7],4 nM
CCOP(=O)(Cc1ccc(CC(NC(=O)OC2COC3OCCC23)C(O)CN(CC(C)C)S(=O)(=O)c2ccc(OC)cc2)cc1)OCC (centres unmarked) [drawing 654 R1=OE R2=OE],Ki,[1]; read-out: Ki,< 10 pM
same,I84V/L90M fold change,[2]; [6],+ (>3 to ≦10)
same,EC50,[3]; read-out: EC50,< 50 nM
COC(=O)C(C)OP(=O)(COc1ccc(CC(NC(=O)OC2COC3OCCC23)C(O)CN(CC(C)C)S(=O)(=O)c2ccc(OC)cc2)cc1)Oc1ccccc1 [drawing 658 R1=OPh R2=(R)Lac-Me],Ki,[1]; [8],< 10 pM
CC[C@H](OP(=O)(O)COc1ccc(C[C@H](NC(=O)O[C@H]2CO[C@H]3OCC[C@H]32)[C@H](O)CN(CC(C)C)S(=O)(=O)c2ccc(OC)cc2)cc1)C(=O)O [drawing 659 R1=OH R2=(S)Hba-OH],Ki,[1]; read-out: Ki,10 to 100 pM
CCOC(=O)C(C)OP(=O)(CCN(C)Cc1ccc(CC(NC(=O)OC2COC3OCCC23)C(O)CN(CC(C)C)S(=O)(=O)c2ccc(OC)cc2)cc1)Oc1ccccc1 (centres unmarked) [drawing 663 R1=Ph R2=Lac-Et],Ki,[1]; [8],100 to 1000 pM
same,I84V/L90M fold change,[2]; [6],+ (>3 to ≦10)
same,EC50,"[3]; Human immunodeficiency virus 1, IIIB, MT2, class symbols, Table 10",50 to 500 nM
COc1ccc(S(=O)(=O)N(CC(C)C)CC(O)C(Cc2ccc(NCP(=O)(NC(C)C(=O)OC(C)C)Oc3ccccc3)cc2)NC(=O)OC2COC3OCCC23)cc1 (centres unmarked) [drawing 704],Ki,[1]; [8],10 to 100 pM
COc1ccc(S(=O)(=O)N(CC(C)C)CC(O)C(Cc2ccc(NCP(=O)(NC(C)C(=O)OC(C)C)Oc3ccccc3)cc2)NC(=O)OC2COC3OCCC23)cc1 (centres unmarked) [drawing 705],Ki,[1]; [8],< 10 pM
CCCCOC(=O)C(C)OP(=O)(COc1ccc(C[C@H](NC(=O)O[C@H]2CO[C@H]3OCC[C@H]32)[C@H](O)CN(CC(C)C)S(=O)(=O)c2cccc(N)c2)cc1)Oc1ccccc1 (some centres unmarked) [drawing 763],Ki,[1]; read-out: Ki,10 to 100 pM
same,EC50,[3]; read-out: EC50,50 to 500 nM
Nc1n[nH]c2ccc(CN3C(=O)N(Cc4cccc(OCP(=O)(O)Oc5ccccc5)c4)C(Cc4ccccc4)C(O)C(O)C3Cc3ccccc3)cc12 (centres unmarked) [m-OCH2PO3HPh],EC50,84V90M,> 6000 nM
Nc1n[nH]c2ccc(CN3C(=O)N(Cc4cccc(OCP(=O)(Oc5ccccc5)Oc5ccccc5)c4)C(Cc4ccccc4)C(O)C(O)C3Cc3ccccc3)cc12 (centres unmarked) [m-OCH2PO3Ph2],EC50,84V90M,> 6000 nM
